Reference: patent publication US20250059156A1, “THERAPEUTIC ALKALOID COMPOUNDS” (Sensorium Therapeutics, Inc., priority 2022, published 2025)

Tests used:
SERT = SERT (Homo sapiens (Human), UniProt P31645); assay: SERT inhibition assay (Neurotransmitter Transporter Fluorescence assay); type: cell-based; details: class symbols; legend in nM/micromolar
Procedure: SERT inhibition was measured using a Neruotransmitter Transportation Fluorescence assay. Briefly, stable 5HHH cells were prepared in a 384 microwell plate. Compounds were prepared by in assay buffer (20 mM HEPES, 0.1% BSA). The compounds were added to the plated cells and incubated for 30 minutes at 37° C. 25 μL of dye solution (Molecular Devices Neurotransmitter Transporter Uptake Assay Kit) was added per well and incubated for 30 minutes at 37° C. The plates were then read on a plate reader.

PDE4A1A = PDE4A1A (Homo sapiens (Human), UniProt P27815); assay: PDE4 percent inhibition assay; type: biochemical; details: for inhibition at 10 µM: read-out: PDE4 Isoform % Inhibition @ 10 μM PDE4A1A
Sequence of PDE4A1A (P27815 other isoform, or with tags, fused parts or gaps): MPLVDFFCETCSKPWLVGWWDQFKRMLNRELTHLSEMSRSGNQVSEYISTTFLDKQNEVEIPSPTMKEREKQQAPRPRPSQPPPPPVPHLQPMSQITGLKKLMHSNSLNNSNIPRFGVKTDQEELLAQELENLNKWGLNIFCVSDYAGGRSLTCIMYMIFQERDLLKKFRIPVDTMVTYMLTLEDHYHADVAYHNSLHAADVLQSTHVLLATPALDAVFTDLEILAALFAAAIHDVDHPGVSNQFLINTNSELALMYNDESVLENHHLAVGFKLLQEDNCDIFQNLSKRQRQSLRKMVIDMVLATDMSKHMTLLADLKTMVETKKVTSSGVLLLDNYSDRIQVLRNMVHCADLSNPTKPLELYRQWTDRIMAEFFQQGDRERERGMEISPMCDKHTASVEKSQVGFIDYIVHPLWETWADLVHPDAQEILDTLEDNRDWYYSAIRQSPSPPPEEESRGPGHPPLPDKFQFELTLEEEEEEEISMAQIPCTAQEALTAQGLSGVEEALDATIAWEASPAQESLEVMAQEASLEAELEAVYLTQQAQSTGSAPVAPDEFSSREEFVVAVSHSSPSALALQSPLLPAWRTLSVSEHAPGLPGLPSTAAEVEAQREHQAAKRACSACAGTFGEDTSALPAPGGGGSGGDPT
Procedure: (§1) PDE4 assay kit (BPS Bioscience, San Diego, CA), as described below.
(§2) • 1) Dilute 20 μM FAM-Cyclic-3′, 5′-AMP stock 100-fold with PDE buffer to make a 200 nM solution. Make only sufficient quantity needed for the assay; store remaining 20 μM stock solution in aliquots at −20° C. • 2) Add 25 μl of FAM-Cyclic-3′,5′-AMP (200 nM) to each well designated “Positive Control”, “Test Inhibitor”, and “Substrate Control”. • 3) Add 20 μl of PDE assay buffer to each well designated “Substrate Control” and 45 μl of PDE assay buffer to each well designated “Blank”. • 4) Add 5 μl of inhibitor solution to each well designated “Test Inhibitor”. For the wells labeled “Positive Control”, “Substrate Control” and “Blank”, add 5 μl of the same solution without inhibitor (inhibitor buffer). • 5) Thaw PDE on ice. Upon first thaw, briefly spin tube containing enzyme to recover the full contents of the tube. • 6) Dilute PDE4 in PDE buffer to 7.5 pg/μl (0.15 ng/reaction)*. Initiate reaction by adding 20 μl of PDE4 (7.5 pg/μl) to the wells designated “Positive Control” and “Test Inhibitor.” • 7) Incubate at room temperature for 1 hour.
(§3) • 1) Mix binding agent thoroughly and dilute binding agent 1:100 with binding agent diluent. • 2) Add 100 μl diluted binding agent to each microwell. Incubate at room temperature for 1 hour with slow shaking. • 3) Read the fluorescent polarization of the sample in a microtiter-plate reader equipped for the measurement of fluorescence polarization, capable of excitation at wavelengths ranging from 485±5 nm and detection of emitted light ranging from 528±10 nm. Blank value is subtracted from all other values.
(§4) 100 µM dilutions of the test compounds were prepared in assay buffer (10% DMSO concentration) and 5 μl of the dilution was added to a 50 μl reaction so that the final concentration of DMSO is 1% in all of reactions.
(§5) The enzymatic reactions were conducted at room temperature for 60 minutes in a 50 μl mixture containing PDE assay buffer, 100 nM FAM-cAMP, a PDE enzyme and the test compound.
(§6) After the enzymatic reaction, 100 Is of a binding solution (1:100 dilution of the binding agent with the binding agent diluent) was added to each reaction and the reaction was performed at room temperature for 60 minutes.
(§7) Fluorescence intensity was measured at an excitation of 485 nm and an emission of 528 nm using a Tecan Infinite M1000 microplate reader.

PDE4B2 = PDE4B2 (Homo sapiens (Human), UniProt Q07343); assay: PDE4 percent inhibition assay; type: biochemical; details: for inhibition at 10 µM: read-out: PDE4 Isoform % Inhibition @ 10 μM PDE4B2
Sequence of PDE4B2 (Q07343 other isoform, or with tags, fused parts or gaps): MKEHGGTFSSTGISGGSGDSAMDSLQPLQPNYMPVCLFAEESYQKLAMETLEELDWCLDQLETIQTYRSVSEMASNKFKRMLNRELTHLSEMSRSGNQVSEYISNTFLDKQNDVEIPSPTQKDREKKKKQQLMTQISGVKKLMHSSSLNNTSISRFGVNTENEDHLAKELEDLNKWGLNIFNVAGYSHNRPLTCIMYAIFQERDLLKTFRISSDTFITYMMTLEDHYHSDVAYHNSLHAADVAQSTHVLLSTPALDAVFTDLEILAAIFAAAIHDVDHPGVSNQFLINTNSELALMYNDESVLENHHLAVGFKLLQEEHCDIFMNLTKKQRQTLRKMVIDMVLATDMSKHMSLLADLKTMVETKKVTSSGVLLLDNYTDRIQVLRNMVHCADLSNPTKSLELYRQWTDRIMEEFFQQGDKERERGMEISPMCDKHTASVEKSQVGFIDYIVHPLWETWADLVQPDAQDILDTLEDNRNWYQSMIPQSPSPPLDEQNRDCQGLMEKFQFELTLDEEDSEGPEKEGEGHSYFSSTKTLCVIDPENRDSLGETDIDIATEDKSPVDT
Procedure: as §1, §2, §3, §4, §5, §6, §7

PDE4C1 = PDE4C1 (Homo sapiens (Human), UniProt Q08493); assay: PDE4 percent inhibition assay; type: biochemical; details: for inhibition at 10 µM: read-out: PDE4 Isoform % Inhibition @ 10 μM PDE4C1
Sequence of PDE4C1 (Q08493 whole entry, canonical isoform): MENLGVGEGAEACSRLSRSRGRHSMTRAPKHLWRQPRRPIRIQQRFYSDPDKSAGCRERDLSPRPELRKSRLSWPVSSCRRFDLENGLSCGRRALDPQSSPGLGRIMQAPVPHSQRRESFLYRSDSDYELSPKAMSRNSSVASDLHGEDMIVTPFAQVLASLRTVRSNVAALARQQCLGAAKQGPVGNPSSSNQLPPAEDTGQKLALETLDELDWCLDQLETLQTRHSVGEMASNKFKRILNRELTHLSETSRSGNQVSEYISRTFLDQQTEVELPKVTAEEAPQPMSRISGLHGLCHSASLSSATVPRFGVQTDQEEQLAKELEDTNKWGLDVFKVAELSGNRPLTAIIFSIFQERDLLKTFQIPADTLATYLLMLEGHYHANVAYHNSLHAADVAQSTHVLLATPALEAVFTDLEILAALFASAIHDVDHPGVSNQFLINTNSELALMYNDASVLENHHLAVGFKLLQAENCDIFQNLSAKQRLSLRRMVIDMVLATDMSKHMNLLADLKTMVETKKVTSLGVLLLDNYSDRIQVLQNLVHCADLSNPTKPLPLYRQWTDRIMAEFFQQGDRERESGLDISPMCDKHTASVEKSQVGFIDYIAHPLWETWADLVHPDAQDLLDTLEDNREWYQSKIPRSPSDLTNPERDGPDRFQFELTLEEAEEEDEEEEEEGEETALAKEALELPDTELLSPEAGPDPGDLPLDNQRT
Procedure: as §1, §2, §3, §4, §5, §6, §7

PDE4D2 = PDE4D2 (Homo sapiens (Human), UniProt Q08499); assay: PDE4 percent inhibition assay; type: biochemical; details: for inhibition at 10 µM: read-out: PDE4 Isoform % Inhibition @ 10 μM PDE4D2
Sequence of PDE4D2 (Q08499 303-809, change not shown): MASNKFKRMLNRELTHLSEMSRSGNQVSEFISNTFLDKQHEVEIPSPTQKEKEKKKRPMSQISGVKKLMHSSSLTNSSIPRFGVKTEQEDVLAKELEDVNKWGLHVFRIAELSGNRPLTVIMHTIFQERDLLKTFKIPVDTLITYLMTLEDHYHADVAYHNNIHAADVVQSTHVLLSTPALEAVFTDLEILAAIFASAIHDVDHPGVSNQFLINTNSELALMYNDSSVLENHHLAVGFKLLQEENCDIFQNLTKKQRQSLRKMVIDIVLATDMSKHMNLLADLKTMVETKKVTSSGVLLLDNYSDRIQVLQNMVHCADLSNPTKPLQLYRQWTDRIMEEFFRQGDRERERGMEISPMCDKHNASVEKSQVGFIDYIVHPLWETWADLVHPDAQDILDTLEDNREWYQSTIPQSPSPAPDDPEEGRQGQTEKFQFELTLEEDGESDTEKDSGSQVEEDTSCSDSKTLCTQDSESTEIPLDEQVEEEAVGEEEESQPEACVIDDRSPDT
Procedure: as §1, §2, §3, §4, §5, §6, §7

Sequence of SERT (P31645 whole entry, species assumed): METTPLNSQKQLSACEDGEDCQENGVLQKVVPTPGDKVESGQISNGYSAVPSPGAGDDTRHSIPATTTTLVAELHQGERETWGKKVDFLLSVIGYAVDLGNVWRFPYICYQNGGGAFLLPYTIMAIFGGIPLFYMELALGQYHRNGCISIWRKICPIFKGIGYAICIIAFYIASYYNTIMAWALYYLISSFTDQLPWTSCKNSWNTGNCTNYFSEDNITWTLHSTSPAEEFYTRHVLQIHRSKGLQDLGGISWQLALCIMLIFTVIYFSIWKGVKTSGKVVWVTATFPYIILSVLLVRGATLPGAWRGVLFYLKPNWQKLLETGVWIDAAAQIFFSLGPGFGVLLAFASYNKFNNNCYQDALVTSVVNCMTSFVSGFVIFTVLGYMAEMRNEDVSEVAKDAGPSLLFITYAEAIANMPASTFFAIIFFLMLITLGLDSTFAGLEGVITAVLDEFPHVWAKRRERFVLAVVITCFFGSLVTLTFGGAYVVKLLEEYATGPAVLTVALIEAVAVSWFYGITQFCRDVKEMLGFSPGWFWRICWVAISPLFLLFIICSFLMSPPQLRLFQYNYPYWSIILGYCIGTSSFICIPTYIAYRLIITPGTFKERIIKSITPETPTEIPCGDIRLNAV

| Structure (SMILES) | IC50 (SERT) [nM] | PDE4 Isoform % Inhibition @ 10 μM PDE4A1A (PDE4A1A) | PDE4 Isoform % Inhibition @ 10 μM PDE4B2 (PDE4B2) | PDE4 Isoform % Inhibition @ 10 μM PDE4C1 (PDE4C1) | PDE4 Isoform % Inhibition @ 10 μM PDE4D2 (PDE4D2) | inhibition at 10 µM (PDE4A1A) [%] | inhibition at 10 µM (PDE4B2) [%] | inhibition at 10 µM (PDE4C1) [%] | inhibition at 10 µM (PDE4D2) [%] |
| --- | --- | --- | --- | --- | --- | --- | --- | --- | --- |
| COc1ccc([C@]23CCN(C)[C@H]2[C@@H]2CC[C@H]3CC2=O)cc1OC [Compound 204] | 100 to 500 | A (A if the % inhibition is greater than or equal to 70%) | A (A if the % inhibition is greater than or equal to 70%) | A (A if the % inhibition is greater than or equal to 70%) | A (A if the % inhibition is greater than or equal to 70%) | – | – | – | – |
| COc1ccc([C@@]23CC[C@H](N4CCC4)C[C@@H]2N(C)CC3)cc1OC [Compound 104, (3aS,6S,7aS)-6-(azetidin-1-yl)-3a-(3,4-dimethoxyphenyl)-1-methyloctahydro-1H-indole] | 100 to 500 | – | – | – | – | < 30 | < 30 | < 30 | < 30 |
| COc1ccc([C@]23CCN(C)[C@H]2CC(=O)[C@H]2O[C@H]23)cc1OC [Compound 209] | < 50 | A (A if the % inhibition is greater than or equal to 70%) | A (A if the % inhibition is greater than or equal to 70%) | A (A if the % inhibition is greater than or equal to 70%) | A (A if the % inhibition is greater than or equal to 70%) | – | – | – | – |
| COc1ccc([C@@]23CC[C@@H](N4CCCC4)C[C@@H]2N(C)CC3)cc1OC [Compound 105, (3aS,6R,7aS)-3a-(3,4-dimethoxyphenyl)-1-methyl-6-(pyrrolidin-1-yl)octahydro-1H-indole] | 100 to 500 | – | – | – | – | < 30 | < 30 | < 30 | < 30 |
| COc1ccc([C@@]23CCN(C)[C@@H]2CC(=O)[C@@H]2O[C@@H]23)cc1OC [Compound 210] | 100 to 500 | A (A if the % inhibition is greater than or equal to 70%) | A (A if the % inhibition is greater than or equal to 70%) | A (A if the % inhibition is greater than or equal to 70%) | A (A if the % inhibition is greater than or equal to 70%) | – | – | – | – |
| COc1ccc([C@@]23CC[C@@H](N4CCC4)C[C@@H]2N(C)CC3)cc1OC [Compound 116, (3aS,6R,7aS)-6-(azetidin-1-yl)-3a-(3,4-dimethoxyphenyl)-1-methyloctahydro-1H-indole] | 500 to 1000 | – | – | – | – | < 30 | < 30 | < 30 | < 30 |
| COc1ccc([C@]23CC[C@H](n4ccc(C(F)(F)F)n4)C[C@H]2N(C)CC3)cc1OC [Compound 122] | > 1000 | D (D if the percent inhibition is less than 30%) | D (D if the percent inhibition is less than 30%) | D (D if the percent inhibition is less than 30%) | D (D if the percent inhibition is less than 30%) | – | – | – | – |
| COc1ccc([C@@]23CCN(C)[C@@H]2[C@H]2CCC[C@@H]3CC2=O)cc1OC [Compound 219] | 100 to 500 | C (C is the percent inhibition is 30-50%) | C (C is the percent inhibition is 30-50%) | B (B if the percent inhibition is 50-70%) | C (C is the percent inhibition is 30-50%) | – | – | – | – |
| COc1ccc([C@@]23CCN(C)[C@@H]2[C@H]2C[C@@H]3CC2=O)cc1OC [Compound 214] | 100 to 500 | A (A if the % inhibition is greater than or equal to 70%) | C (C is the percent inhibition is 30-50%) | D (D if the percent inhibition is less than 30%) | C (C is the percent inhibition is 30-50%) | – | – | – | – |
| COc1ccc([C@]23CC[C@@H](n4ccc(C(F)(F)F)n4)C[C@H]2N(C)CC3)cc1OC [Compound 121] | 100 to 500 | D (D if the percent inhibition is less than 30%) | B (B if the percent inhibition is 50-70%) | D (D if the percent inhibition is less than 30%) | B (B if the percent inhibition is 50-70%) | – | – | – | – |
| COc1ccc([C@@]23CC[C@H](N4CCCC4=O)C[C@@H]2N(C)CC3)cc1OC [Compound 111, 1-((3aS,6S,7aS)-3a-(3,4-dimethoxyphenyl)-1-methyloctahydro-1H-indol-6-yl)pyrrolidin-2-one] | < 50 | – | – | – | – | < 30 | < 30 | < 30 | < 30 |
| COc1ccc([C@@]23CC[C@H](N4CCCC4)C[C@@H]2N(C)CC3)cc1OC [Compound 106, (3aS,6S,7aS)-3a-(3,4-dimethoxyphenyl)-1-methyl-6-(pyrrolidin-1-yl)octahydro-1H-indole] | 500 to 1000 | – | – | – | – | < 30 | < 30 | < 30 | < 30 |
| COc1ccc([C@@]23CCN(C)[C@H]2CC(=O)[C@@H]2O[C@@H]23)cc1OC (racemic) [Compound 208, rac-(1aR,3aS,6aS,6bR)-6a-(3,4-dimethoxyphenyl)-4-methyloctahydro-2H-oxireno[2,3-e]indol-2-one] | 50 to 100 | – | – | – | – | ≥ 70 | ≥ 70 | ≥ 70 | ≥ 70 |
| COc1ccc([C@@]23CC[C@@H](n4ccc(C(F)(F)F)n4)C[C@@H]2N(C)CC3)cc1OC [Compound 115, (3aS,6R,7aS)-3a-(3,4-dimethoxyphenyl)-1-methyl-6-(3-(trifluoromethyl)-1H-pyrazol-1-yl)octahydro-1H-indole] | < 50 | – | – | – | – | < 30 | < 30 | < 30 | < 30 |
| COc1ccc([C@@]23CC[C@@H](n4cccn4)C[C@@H]2N(C)CC3)cc1OC [Compound 103, (3aS,6R,7aS)-3a-(3,4-dimethoxyphenyl)-1-methyl-6-(1H-pyrazol-1-yl)octahydro-1H-indole] | < 50 | – | – | – | – | < 30 | < 30 | < 30 | < 30 |
| COc1ccc([C@]23CCN(C)[C@H]2CC(=O)C[C@H]3c2ccccc2)cc1OC [Compound 207] | > 1000 | B (B if the percent inhibition is 50-70%) | B (B if the percent inhibition is 50-70%) | B (B if the percent inhibition is 50-70%) | B (B if the percent inhibition is 50-70%) | – | – | – | – |
| COc1ccc([C@]23CCN(C)[C@H]2[C@H]2CC[C@@H]3CC2=O)cc1OC [Compound 203] | 50 to 100 | D (D if the percent inhibition is less than 30%) | B (B if the percent inhibition is 50-70%) | C (C is the percent inhibition is 30-50%) | B (B if the percent inhibition is 50-70%) | – | – | – | – |
